Tests used:
[1] = system: untreated mice ears; assay: Inflammatory potential on untreated mice ears (Study B, Day 1); format: in vivo, hairless outbred mice (Skh:hr-1 strain); details: 1.5 micromole per 10 microliter on untreated ears
Protocol: (§1) Acute inflammation is induced by the application of 4 nano mole of the antibiotic A-23187 to the ears of young, male, adult hairless outbred mice (Skh:hr-1 strain). Thereafter, one of the compounds AN-10, AMCF3-8, ACBXE-9, acryloyl AN-10, S-4-F and SAN-6 is applied to the affected ears and the degree of reduction in edema (inflammation) noted.
(§2) A second group of studies (Study B) is conducted on two consecutive days with two sets of mice (totalling 80 animals) received from the same shipment.
The first batch of 40 animals is divided into 8 groups of 5 each. […] The remaining two groups of 5 animals each serve as controls and their ears are dosed with A-23187 and acetone respectively.
(§3) The amount of each salicylamide compound applied is kept constant, for Days 1 and 2, at 1.5 micromole per 10 microliter of test solution. Sacrifice begins four hours after application A-23187, on both days, and the results are recorded. Table 2 summarizes the results of the regimen of testing involved with each one of the 30 animals in question on Day 2 with the remaining 10 animals serving as controls as already noted.

[2] = system: inflammation of mice ears caused by antibiotic A-23187; assay: Reduction of A-23187-induced ear edema by ear weights, Examples 8-14; format: in vivo, hairless outbred mice (Skh:hr-1 strain); details: for Reduction in Edema (%), Study B: Day 2, 1.5 micromole per 10 microliter, A-23187 (4 nmole), sacrifice from 4 hours; for antiinflammatory activity (in words): under the test conditions of Table 2
Description: as §1
The method used in the subject Examples differs from the method used in the preceding Examples (4 through 7) in two respects.
Secondly, in the expression of the data, the objective parameter of ear weights is used as the sole data source (for the reduction of edema) as erythematous responses are not recorded. Ear weights are determined by sacrificing the animals four hours after initial application of the antibiotic A-23187 or other control material by the use of CO2 gas. Thereafter, the ears are excised by cutting along the characteristic ridge readily discernible along the inner aspect of the ears. Wet and dry ear weights are used to determine the extent of the edema or inflammation present.
In Study A, 28 test animals are randomized into four treatment groups of seven each and subjected to the following ear treatment regimen:
Each animal is dosed with a treatment consisting of a 10 microliter quantity of the assigned test material solution (or pure acetone in the case of the animals of Group D) applied to the outer aspect of both ears, i.e., 10 microliter of test material per ear. The concentrations of the respective materials in acetone solution are such that a 10 microliter dose of a solution of the antibiotic A-23187 contains 4 nano mole of such antibiotic. The corresponding quantity in the case of the AN-10 in acetone solution is 1.5 micromole. The animals of Groups A and B are initially treated with the acetone solution of A-23187. In the case of the animals of Group B alone, 10 microliter of the acetone solution of AN-10 is applied to the affected ears 1/2 hour after the application of the above-mentioned quantity of a solution in acetone of the antibiotic A-23187. The animals of Group C receive a 10 microliter dose per ear of the AN-10 in acetone solution alone. The animals of Group D receive a dose of 10 microliter per ear of pure acetone. All the test subjects are sacrificed four hours after the application of A-23187 to the animals of Groups A and B or the other test materials in the case of the animals of Groups C and D. The results are summarized in Table 2 noted below.
as §2
On Day 2, using the second set of 40 mice, sub-divided into 8 groups of 5 each, the six compounds in question are applied as acetone solutions in the manner described under Study A to mice ears inflamed with A-23187 again, as described in Study A above. As with the studies conducted on Day 1, the remaining two groups of 5 animals each serve as controls and their ears are dosed with A-23187 and acetone respectively.
as §3

[3] = system: inflammation of mice ears caused by calcium ionophore (A-23187); assay: Reduction of A-23187-induced ear inflammation (edema and erythema), Examples 4-7, each animal its own control; format: in vivo, male outbred hairless mice; details: for anti-inflammatory activity (in words): at the concentration used (1.5 micromole topical); for reduction of inflammation (reference anti-inflammatories): topical, 30 minutes after application of A-23187
Description: In a group of 5 male outbred hairless mice, inflammation is induced on their ears by the topical application thereto of 4.0 nmole in acetone solution (total volume 10 microliter) of the known divalent calcium ionophore (antibiotic A-23187), which is derived from Streptomyces chartreusis and is a member of a known class of compounds showing ionophoric activity. See, e.g. Pressman, B. C., "Biological Applications of Ionophores", Ann. Rev. Biochem., 45, 501, 1976. […] See Marks, F., Furstenberger, G., and Kownatzki, E., "Prostaglandin E-mediated Mitogenic Stimulation of Mouse Epidermis in vivo by divalent cation ionophore A-23187 and by tumor promoter 12-O-tetradecanoyl phorbol-13-acetate, Cancer Res., 41, 696, 1981.
In each animal only one ear is treated, the other untreated ear serving as a control.
In Examples 4, 5 and 6 the compounds AN-10, APCF3-8 and AMCF3-8, respectively, are topically applied to the treated ears of different groups of five male outbred hairless mice 30 minutes following the topical application thereto of the ionophore A-23187. Specifically, 1.5 micromole of the amido compound in acetone solution (total volume 10 microliters) is applied topically to treated male outbred hairless mice ears 30 min. after topical application thereto of a calcium ionophore (A-23187, 4.0 nmole total volume to 10 microliter) in acetone. As already noted, in each case, each animal serves as its own control in that only one ear is subjected to said test regime while the other ear is left untouched. Erythema and edema are assessed 4 hrs. after application of the ionophore. In Control Example 7, 3,4',5-tribromosalicylanilide (TBS) is applied in the same manner.

[4] = single dose oral route, Osborne-Mendel white rats, sixteen females; cited from earlier work
[5] = system: mice backs (skin); details: topical application to mice backs, in vivo tumor promotion studies; cited from earlier work
[6] = comparison; oral, rats; cited from earlier work
[7] = 1.5 micromole topical, 30 min after A-23187 (4.0 nmole), assessed 4 hrs after ionophore

Structure (SMILES): C=CC(=O)Oc1ccc(C(=O)CCCCCCCCC)cc1C(=O)Nc1ccc([N+](=O)[O-])cc1 [acryloyl AN-10]
- noticeable inflammation (inflammatory potential) [1]: none of the six compounds being tested cause any noticeable inflammation
- Reduction in Edema (%), Study B ([2]; ear weights): 82%
- antiinflammatory activity (in words) [2]: significant antiinflammatory activity

Structure (SMILES): CCCCCCCC(=O)c1ccc(O)c(C(=O)Nc2cccc(C(F)(F)F)c2)c1 [AMCF3-8]
- noticeable inflammation (inflammatory potential) [1]: none of the six compounds being tested cause any noticeable inflammation
- anti-inflammatory activity (in words) [3]: effective anti-inflammatories
- Reduction in Edema (%), Study B ([2]; ear weights): 81%
- antiinflammatory activity (in words) [2]: significant antiinflammatory activity

Structure (SMILES): CCCCc1ccc(O)c(C(=O)Nc2cccc(C(F)(F)F)c2)c1 [S-4-F]
- noticeable inflammation (inflammatory potential) [1]: none of the six compounds being tested cause any noticeable inflammation
- Reduction in Edema (%), Study B ([2]; ear weights): 70%
- antiinflammatory activity (in words) [2]: significant antiinflammatory activity

Structure (SMILES): O=C(Nc1ccc(Br)cc1)c1cc(Br)cc(Br)c1O [TBS, 3,4',5-tribromosalicylanilide]
- Reduction in Edema (%) [3, 7]: 12%
- Reduction in Erythema (%) [3, 7]: 35%
- anti-inflammatory activity (in words) [3]: essentially inactive

Structure (SMILES): CCCCCCCCC(=O)c1ccc(O)c(C(=O)Nc2cccc(C(=O)OCC)c2)c1 [ACBXE-9]
- noticeable inflammation (inflammatory potential) [1]: none of the six compounds being tested cause any noticeable inflammation
- Reduction in Edema (%), Study B ([2]; ear weights): 76%
- antiinflammatory activity (in words) [2]: significant antiinflammatory activity

Structure (SMILES): C[C@]12CCC(=O)C=C1CC[C@@H]1[C@@H]2[C@@H](O)C[C@@]2(C)[C@H]1CC[C@]2(O)C(=O)CO [hydrocortisone]
- reduction of inflammation (reference anti-inflammatories) [3]: reduction of inflammation

Structure (SMILES): CCCCCCCCCC(=O)c1ccc(O)c(C(=O)Nc2ccc([N+](=O)[O-])cc2)c1 [AN-10]
- noticeable inflammation (inflammatory potential) [1]: none of the six compounds being tested cause any noticeable inflammation
- anti-inflammatory activity (in words) [3]: effective anti-inflammatories
- LD50 [4]: greater than 2000 mg./kg.
- Reduction in Edema (%), Study A ([2]; Study A, 1.5 micromole per ear, 1/2 hour after A-23187 (4 nmole), sacrificed at 4 hours, ear weights): 55%
- Reduction in Edema (%), Study B ([2]; ear weights): 81%
- antiinflammatory activity (in words) [2]: significant antiinflammatory activity

Structure (SMILES): CNc1ccc2oc(C[C@H]3O[C@@]4(CC[C@H]3C)O[C@H]([C@H](C)C(=O)c3ccc[nH]3)[C@H](C)C[C@H]4C)nc2c1C(=O)O [A-23187]
- skin irritation [5]: potent ability to cause skin irritation
- acute inflammation on treated ears after topical A-23187 ([3]; within 4 hours following topical application, time and dose dependent): Acute inflammation develops

Structure (SMILES): CCCCCCc1ccc(O)c(C(=O)Nc2ccc([N+](=O)[O-])cc2)c1 [SAN-6]
- noticeable inflammation (inflammatory potential) [1]: none of the six compounds being tested cause any noticeable inflammation
- Reduction in Edema (%), Study B ([2]; ear weights): 59%
- antiinflammatory activity (in words) [2]: significant antiinflammatory activity

Structure (SMILES): CC(=O)Oc1ccccc1C(=O)O [aspirin, acetylsalicylic acid]
- LD50 (comparable toxicity of aspirin) [6]: about 1.75 g/kg. body weight

Structure (SMILES): COc1ccc2c(c1)c(CC(=O)O)c(C)n2C(=O)c1ccc(Cl)cc1 [indomethacin]
- reduction of inflammation (reference anti-inflammatories) [3]: reduction of inflammation

Structure (SMILES): CCCCCCCC(=O)c1ccc(O)c(C(=O)Nc2ccc(C(F)(F)F)cc2)c1 [APCF3-8]
- anti-inflammatory activity (in words) [3]: effective anti-inflammatories

— US4742083A, “Method of relieving pain and inflammatory conditions employing substituted salicylamides” (Lever Brothers Company, priority 1985, dated 1988)
